Results taken from patent US20260250277A1, “HYDRAZINO GROUP-CONTAINING COMPOUND” (CHIA TAI TIANQING PHARMACEUTICAL GROUP CO., LTD., priority 2022, published 2026).
Like-named read-outs stand apart in the source and are kept apart here.

Legend:
ATM kinase = ATM kinase (Homo sapiens, UniProt Q13315); assay: Inhibitory activity against ATM kinase (p53 substrate, HTRF); format: biochemical
Protocol: (§1) ATM kinase solution (concentration: 25 ng/μL) was added to assay wells at 6 μL/well, and different compounds dissolved in DMSO were added to the assay wells separately using a nanoliter pipettor, such that the final concentrations of the compounds were 10000 nM to 2.44 nM. In this experiment, the wells were set in duplicate, and a control well was set. After incubation of the above system for 30 min at room temperature, ATP (100 μM) was mixed with p53 substrate (50 nM) at a ratio of 1:1, and the mixture was added at 4 μL/well. The resulting mixture was left to react at room temperature for 2 h, and then 5 μL of EDTA was added to terminate the reaction, followed by addition of 5 μL of detection antibodies, Mab Anti-phospho p53 and Mab Anti GST-d2 (manufacturer: perkinelmer). The mixture was incubated at room temperature for 1 h. The plate was read using a PerkinElmer Envision multifunctional microplate reader (excitation: 320 nm, emission: 620 nm/665 nm), and IC50 was calculated by four-parameter fitting.

[1] = test system: CHK2 phosphorylation of NCI-H2228 cells; assay: Inhibitory activity against CHK2 phosphorylation of NCI-H2228 cells (p-CHK2 Thr68 AlphaLISA); format: cell-based; settings: Homo sapiens
Protocol: NCI-H2228 cells in a good growth state were collected, added to a centrifuge tube, adjusted to a cell density of 1.25×10^6 cells/mL, and seeded in a 384-well plate (8 μL/well). The cells were equilibrated in a cell incubator for 1.5 h, and then compounds were added using a nanoliter pipettor, such that the final concentrations of the compounds were 200 nM to 0.049 nM. In this experiment, the wells were set in duplicate, and a control well was set. After the mixture was further cultured for 1 h in the cell incubator, an assay was performed using a p-CHK2 (Thr68) assay kit (manufacturer: perkinelmer) and the Envision microplate reader AlphaLISA program. A four-parameter analysis was performed, a dose-response curve was fit, and IC50 was calculated.

[2] = In vivo pharmacokinetics (Table 4); settings: plasma; for MRT last: read-out: MRT(0-t); for Vd: read-out: Vz
[3] = molecular target: ATR/ATPIP (ATR-interacting protein) kinase (Homo sapiens, UniProt Q13535); assay: Inhibitory activity against ATR kinase (p53 substrate, HTRF); format: biochemical
Sequence of ATR/ATPIP (ATR-interacting protein) kinase (Q13535 whole entry): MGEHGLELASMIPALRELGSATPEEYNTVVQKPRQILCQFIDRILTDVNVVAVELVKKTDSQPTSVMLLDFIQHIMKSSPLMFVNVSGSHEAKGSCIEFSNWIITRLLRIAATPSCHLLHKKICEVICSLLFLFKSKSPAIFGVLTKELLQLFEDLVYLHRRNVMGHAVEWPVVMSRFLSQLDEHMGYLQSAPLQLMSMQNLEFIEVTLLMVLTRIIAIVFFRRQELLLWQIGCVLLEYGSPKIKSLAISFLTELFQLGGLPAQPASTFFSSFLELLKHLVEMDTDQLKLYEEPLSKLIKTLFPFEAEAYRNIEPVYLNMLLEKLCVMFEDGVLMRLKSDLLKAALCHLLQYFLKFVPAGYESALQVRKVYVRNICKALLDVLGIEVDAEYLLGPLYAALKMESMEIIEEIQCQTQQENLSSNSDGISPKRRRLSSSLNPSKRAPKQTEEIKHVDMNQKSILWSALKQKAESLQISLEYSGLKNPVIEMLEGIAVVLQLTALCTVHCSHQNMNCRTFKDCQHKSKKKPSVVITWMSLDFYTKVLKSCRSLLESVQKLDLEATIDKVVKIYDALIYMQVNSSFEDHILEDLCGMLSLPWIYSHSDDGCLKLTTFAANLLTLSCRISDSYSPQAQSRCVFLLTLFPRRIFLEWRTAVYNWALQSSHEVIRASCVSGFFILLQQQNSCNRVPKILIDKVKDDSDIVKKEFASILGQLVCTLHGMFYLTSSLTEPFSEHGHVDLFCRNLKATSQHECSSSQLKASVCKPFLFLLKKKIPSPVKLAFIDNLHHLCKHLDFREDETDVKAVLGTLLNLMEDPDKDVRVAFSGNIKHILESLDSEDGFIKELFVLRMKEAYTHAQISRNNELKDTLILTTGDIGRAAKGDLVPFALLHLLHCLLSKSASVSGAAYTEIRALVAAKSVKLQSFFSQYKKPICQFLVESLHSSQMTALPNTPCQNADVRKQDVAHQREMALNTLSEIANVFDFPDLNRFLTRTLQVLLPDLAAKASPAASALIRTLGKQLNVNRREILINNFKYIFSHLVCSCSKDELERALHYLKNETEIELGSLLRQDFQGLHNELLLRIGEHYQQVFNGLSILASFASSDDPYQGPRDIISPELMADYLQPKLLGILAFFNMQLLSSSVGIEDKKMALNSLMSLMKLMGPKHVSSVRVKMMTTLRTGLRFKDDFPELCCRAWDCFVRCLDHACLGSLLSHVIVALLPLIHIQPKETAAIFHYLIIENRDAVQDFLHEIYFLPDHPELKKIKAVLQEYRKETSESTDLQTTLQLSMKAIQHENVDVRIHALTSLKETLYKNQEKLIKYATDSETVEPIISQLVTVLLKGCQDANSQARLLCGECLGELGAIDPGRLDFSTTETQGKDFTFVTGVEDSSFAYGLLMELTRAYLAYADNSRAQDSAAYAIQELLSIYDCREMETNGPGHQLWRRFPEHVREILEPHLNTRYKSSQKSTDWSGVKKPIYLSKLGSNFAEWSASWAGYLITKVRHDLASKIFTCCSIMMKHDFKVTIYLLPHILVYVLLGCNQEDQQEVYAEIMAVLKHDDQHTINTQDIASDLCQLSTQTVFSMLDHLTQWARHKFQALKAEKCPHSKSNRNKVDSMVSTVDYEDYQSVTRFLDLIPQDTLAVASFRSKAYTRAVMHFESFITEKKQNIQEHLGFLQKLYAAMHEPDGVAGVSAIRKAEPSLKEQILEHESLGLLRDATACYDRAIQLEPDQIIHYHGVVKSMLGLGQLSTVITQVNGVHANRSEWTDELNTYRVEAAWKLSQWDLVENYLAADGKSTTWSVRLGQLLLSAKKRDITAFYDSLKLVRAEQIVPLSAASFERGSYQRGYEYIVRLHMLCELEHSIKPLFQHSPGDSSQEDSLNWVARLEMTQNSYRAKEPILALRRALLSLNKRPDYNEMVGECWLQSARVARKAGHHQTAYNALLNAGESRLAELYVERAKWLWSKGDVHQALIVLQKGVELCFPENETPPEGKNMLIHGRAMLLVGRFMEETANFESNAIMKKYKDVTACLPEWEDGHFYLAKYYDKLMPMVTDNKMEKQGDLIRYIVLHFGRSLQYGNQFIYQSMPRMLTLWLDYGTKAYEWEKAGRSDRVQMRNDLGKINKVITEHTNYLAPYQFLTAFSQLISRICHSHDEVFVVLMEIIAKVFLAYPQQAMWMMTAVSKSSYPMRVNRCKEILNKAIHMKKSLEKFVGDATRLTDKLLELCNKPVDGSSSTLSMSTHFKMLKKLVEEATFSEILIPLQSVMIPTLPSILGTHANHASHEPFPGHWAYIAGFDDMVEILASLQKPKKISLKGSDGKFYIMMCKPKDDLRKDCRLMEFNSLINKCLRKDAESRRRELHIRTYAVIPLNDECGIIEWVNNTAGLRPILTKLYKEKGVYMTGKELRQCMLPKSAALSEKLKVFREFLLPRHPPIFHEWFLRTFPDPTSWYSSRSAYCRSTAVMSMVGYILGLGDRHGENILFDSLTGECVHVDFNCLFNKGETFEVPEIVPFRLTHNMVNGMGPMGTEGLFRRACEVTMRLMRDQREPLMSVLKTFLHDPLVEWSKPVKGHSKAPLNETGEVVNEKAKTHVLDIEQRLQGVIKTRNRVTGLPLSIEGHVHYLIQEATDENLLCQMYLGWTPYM
Sequence of ATR/ATPIP (ATR-interacting protein) kinase (Q8WXE1 whole entry partner): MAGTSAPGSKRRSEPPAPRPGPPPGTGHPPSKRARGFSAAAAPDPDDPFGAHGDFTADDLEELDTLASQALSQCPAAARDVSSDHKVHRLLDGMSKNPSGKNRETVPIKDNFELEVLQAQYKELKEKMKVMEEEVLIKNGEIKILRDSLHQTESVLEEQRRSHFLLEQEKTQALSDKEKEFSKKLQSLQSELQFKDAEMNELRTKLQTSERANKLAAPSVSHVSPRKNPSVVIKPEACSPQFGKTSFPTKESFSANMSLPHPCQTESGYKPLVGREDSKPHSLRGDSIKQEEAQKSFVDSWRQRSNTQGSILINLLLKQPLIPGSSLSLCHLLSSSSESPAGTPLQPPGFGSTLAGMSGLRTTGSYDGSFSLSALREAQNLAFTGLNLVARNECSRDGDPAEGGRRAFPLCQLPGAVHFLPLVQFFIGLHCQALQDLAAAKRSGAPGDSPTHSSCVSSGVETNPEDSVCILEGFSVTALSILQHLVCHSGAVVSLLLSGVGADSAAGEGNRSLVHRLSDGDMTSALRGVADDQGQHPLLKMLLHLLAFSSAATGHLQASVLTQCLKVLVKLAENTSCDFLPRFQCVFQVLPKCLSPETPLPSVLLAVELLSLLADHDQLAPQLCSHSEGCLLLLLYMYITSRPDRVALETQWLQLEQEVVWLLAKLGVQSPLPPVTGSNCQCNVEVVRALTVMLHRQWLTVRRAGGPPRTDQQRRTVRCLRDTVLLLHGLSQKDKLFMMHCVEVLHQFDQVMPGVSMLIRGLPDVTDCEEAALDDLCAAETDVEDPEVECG
Protocol: as §1, with “ATR/ATPIP (ATR-interacting protein)” for “ATM”, “50” for “25”, “(5” for “(100”

[4] = molecular target: DNA-PK (DNA-dependent protein kinase) (Homo sapiens, UniProt P78527); assay: Inhibitory activity against DNA-PK (p53 substrate, HTRF); format: biochemical
Protocol: as §1, with “DNA-PK” for “ATM”, “0.15” for “25”

Row | IC50 (ATM kinase) [nM] | IC50 [1] [nM] | AUC(0-inf) ([2]; iv, 1 mg/kg) [ng·h/mL] | AUC(0-t) ([2]; iv, 1 mg/kg) [ng·h/mL] | half-life ([2]; iv, 1 mg/kg) [h] | MRT last ([2]; iv, 1 mg/kg) [h] | Vd ([2]; iv, 1 mg/kg) [L/kg] | AUC(0-inf) ([2]; po, IG, 10 mg/kg) [ng·h/mL] | AUC(0-t) ([2]; po, IG, 10 mg/kg) [ng·h/mL] | Cmax ([2]; po, IG, 10 mg/kg) [ng/mL] | Tmax ([2]; po, IG, 10 mg/kg) [h] | half-life ([2]; po, IG, 10 mg/kg) [h] | MRT last ([2]; po, IG, 10 mg/kg) [h] | IC50 [3] [nM] | IC50 [4] [nM] | SMILES
1 | < 50 | < 50 | 539 | 521 | 1.7 | 2.11 | 4.55 | 4270 | 4150 | 521 | 0.5 | 4.59 | 6.1 | 821 | > 1000 | CC(C)n1c(=O)n(N)c2cnc3cc(F)c(-c4ccc(OCCCN5CCCCC5)nc4)cc3c21 [Example 2]
2 | < 50 | < 50 | 624 | 587 | 2.17 | 1.89 | 3.9 | 4500 | 4460 | 506 | 4 | 3.51 | 4.99 | > 1000 | > 1000 | Nn1c(=O)n(C2CC2)c2c3cc(-c4ccc(OCCCN5CCCCC5)nc4)c(F)cc3ncc21 [Example 18]
3 | < 50 | < 50 | 474 | 451 | 2.05 | 1.84 | 4.82 | 4000 | 3980 | 485 | 4 | 3.07 | 4.72 | > 1000 | > 1000 | Nn1c(=O)n(C2CC2)c2c3cc(-c4ccc(OCCCN5CCCC5)nc4)c(F)cc3ncc21 [Example 19]
4 | < 50 | < 50 | 460 | 445 | 1.74 | 2.1 | 5.45 | 4330 | 4250 | 495 | 1 | 4.01 | 6.05 | > 1000 | > 1000 | CC(C)n1c(=O)n(N)c2cnc3cc(F)c(-c4ccc(OCCCN5CCCC5)nc4)cc3c21 [Example 3]
